Experimental data reported in US8912338B2, “Pesticidal compositions” (Dow AgroSciences LLC, priority 2010, dated 2014).

Experiments:
[1] = system: Sweetpotato Whitefly (Bemisia tabaci); test: Insecticidal test for sweetpotato whitefly in foliar spray assay; format: in vivo; settings: 200 ppm foliar spray on cotton plants infested with eggs, live nymphs counted after 8-9 days, Abbott's corrected % control, read-out: BEMITA % Ctrl @ 200 ppm
Procedure: Cotton plants were used as test substrate and were grown in 3-inch pots and pruned until only 1 small (3-5 cm) true leaf remained. The plants were then placed in a room with whitefly ([…]) adults and allowed to be infested with eggs. After a 2-3 day egg-laying period, plants were taken from the adult whitefly room and the adults were removed from the leaves using compressed air delivered through a hand-held Devilbiss sprayer (23 psi). Plants infested with eggs (100-300 eggs per plant) were placed in a controlled-environment room for 5-6 days at 82° F. and 50% RH until approximately 50% egg hatch. Four cotton plants (4 replicates) were used for each treatment. Compounds (2 mg) were dissolved in 1 mL of acetone solvent, forming stock solutions of 2000 ppm. The stock solutions were diluted 10× with 0.025% Tween 20 in H2O to obtain the test solution of 200 ppm. A hand-held Devilbiss sprayer was used for spraying a solution to both sides of cotton leaf until runoff. Reference plants (solvent check) were sprayed with the diluent only. Treated plants were held in a holding room for 8-9 days at approximately 82° F. and 50% RH prior to grading. Evaluation was conducted by counting the number of live nymphs per plant under a microscope. Insecticidal activity data presented in Table 3 were generated by using Abbott's correction formula: Corrected%Control=100*(X-Y)/X • where X=No. of live nymphs on solvent check plants • Y=No. of live nymphs on treated plants […]

[2] = system: Cotton Aphid (Aphis gossypii); test: Insecticidal test for cotton aphid in a foliar spray assay; format: in vivo; settings: 72 h, 200 ppm foliar spray on squash or cotton seedlings, live aphids counted after three days, Abbott's corrected % control, read-out: APHIGO % Ctrl @ 200 ppm
Procedure: Squash or cotton seedlings with fully expanded cotyledon leaves were trimmed to one cotyledon per plant and infested with wingless adult and nymph stage cotton aphid (APHIGO) one day prior to chemical application. Each plant was examined before chemical application to ensure uniform infestation (ca. 30-70 aphids per plant). Compounds (2 mg) were dissolved in 2 mL of acetone/methanol (1:1) solvent, forming stock solutions of 1000 ppm. The stock solutions were diluted 5× with 0.025% Tween 20 in H2O to obtain a solution at 200 ppm. A hand-held Devilbiss aspirator type sprayer was used to apply the spray solutions until runoff to both sides of the squash cotyledon leaves. Four plants (4 replications) were used for each concentration of each compound. Reference plants (solvent check) were sprayed with the diluent only. Treated plants were held in a holding room for three days at approximately 25° C. and 40% RH before the number of live cotton aphids on each plant was recorded. Insecticidal activity data presented in Table 3 were generated by using Abbott's correction formula: Corrected%Control=100*(X−Y)/X • where X=No. of live aphids on solvent check plants • Y=No. of live aphids on treated plants

[3] = system: Green Peach Aphid (Myzus persicae); test: Insecticidal test for green peach aphid in foliar spray assay; format: in vivo; settings: 72 h, 200 ppm foliar spray on cabbage seedlings, live aphids counted after three days, Abbott's corrected % control, read-out: MYZUPE % Ctrl @ 200 ppm
Procedure: Certain molecules disclosed in this document were tested against MYZUPE using procedures described in the following example. In the reporting of the results, the “MYZUPE, APHIGO and BEMITA Rating Table” was used (See Table Section).
Cabbage seedlings grown in 3-inch pots, with 2-3 small (3-5 cm) true leaves, were used as test substrate. The seedlings were infested with 20-50 green peach aphids (wingless adult and nymph stage) one day prior to chemical application. Four pots with individual seedlings were used for each treatment. Compounds (2 mg) were dissolved in 2 mL of acetone/methanol (1:1) solvent, forming stock solutions of 1000 ppm. The stock solutions were diluted 5× with 0.025% Tween 20 in H2O to obtain the test solution at 200 ppm. A hand-held Devilbiss sprayer was used for spraying a solution to both sides of cabbage leaves until runoff. Reference plants (solvent check) were sprayed with the diluent only. Treated plants were held in a holding room for three days at approximately 25° C. and 40% relative humidity (RH) prior to grading. Evaluation was conducted by counting the number of live aphids per plant under a microscope. Insecticidal activity data presented in Table 3 were generated by using Abbott's correction formula: Corrected%Control=100*(X−Y)/X • where X=No. of live aphids on solvent check plants • Y=No. of live aphids on treated plants

| Compound | inhibition at 200 ppm [1] [%] | melting point [°C] | inhibition at 200 ppm [2] [%] | inhibition at 200 ppm [3] [%] |
| --- | --- | --- | --- | --- |
| CN(C(=O)CCNC(=O)OC(C)(C)C)c1nnc(-c2cccnc2)s1 [Compound 38] | 0 to 80 | 41 to 48 | 80 to 100 | 80 to 100 |
| CN(C(=O)C(C)(C)C/S(C)=N/C#N)c1nnc(-c2cccnc2)s1 (stereo not shown) [Compound 39, N-2,2-trimethyl-3-(methyl-N-cyano-sulfiliminyl)-N-(5-(pyridin-3-yl)-1,3,4-thiadiazol-2-yl)propanamide] | 0 to 80 | 42 to 52 | 80 to 100 | 80 to 100 |
| CCS(=O)(=O)C(C)CC(=O)N(C)c1nnc(-c2cccnc2)s1 (stereo not shown) [Compound 43] | < 0 | 175 to 177 | 80 to 100 | 0 to 80 |
| CSCC1(C(=O)N(C)c2nnc(-c3cccnc3)s2)CC1 [Compound 44] | < 0 | 144 to 147 | 80 to 100 | 80 to 100 |
| CN(C(=O)C1(C[S+](C)[O-])CC1)c1nnc(-c2cccnc2)s1 (stereo not shown) [Compound 45] | 0 to 80 | 166 to 168 | 80 to 100 | 80 to 100 |
| CO/N=C(\C)CCC(=O)N(C)c1nnc(-c2cccnc2)s1 [Compound 48, 4-[(E)-methoxyimino]-pentanoic acid methyl-(5-pyridin-3-yl-[1,3,4]thiadiazol-2-yl)-amide] | 0 to 80 | 114 to 121 | 80 to 100 | 80 to 100 |
| CC(=O)CCC(=O)N(C)c1nnc(-c2cccnc2)s1 [Compound 49, N-methyl-4-oxo-N-[5-(3-pyridyl)-1,3,4-thiadiazol-2-yl]pentanamide] | 0 to 80 | 146 to 147 | 80 to 100 | 0 to 80 |
| CSCCOC(=O)N(C)c1nnc(-c2cccnc2)s1 [Compound 50, 2-(Methylthio)ethyl methyl(5-(pyridin-3-yl)-1,3,4-thiadiazol-2-yl)carbamate] | 0 to 80 | 126 to 128 | 80 to 100 | 80 to 100 |
| CN(C(=O)OCC[S+](C)[O-])c1nnc(-c2cccnc2)s1 (stereo not shown) [Compound 51] | 0 to 80 | 170 to 172 | 80 to 100 | 80 to 100 |
| COC(=O)CCC(=O)N(C)c1nnc(-c2cccnc2)s1 [Compound 56, methyl 4-(methyl-(5-(pyridin-3-yl)-1,3,4-thiadiazol-2-yl)amino)-4-oxobutanoate] | < 0 | 152 to 154 | 80 to 100 | 0 to 80 |
